Assay results: patent publication US6573275B1, “Bicyclic amines” (Syngenta Limited, priority 1995, dated 2003)

The compounds below were run on peach aphid (Myzus persicae) (assay: Insecticidal test against peach aphid, infested Chinese cabbage leaves sprayed). Conditions: peach aphid (Myzus persicae) on Chinese cabbage leaves, sprayed with 500 ppm composition unless otherwise stated, mortality assessed after 3 days.
Assay type: in vivo
Method in brief: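 Aphid-infested Chinese cabbage leaves were sprayed with compound at 500 ppm unless otherwise stated, formulated in acetone/ethanol diluted with water containing 0.05% Synperonic NP8. Mortality was assessed after 3 days.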
In the case of `N#CC1(c2cncc(Cl)c2)CC2CCC(C1)N2CCC(=O)O` (stereo not drawn) [Compound 141, exo-3-(5-chloropyrid-3-yl)-endo-3-cyano-8-(2-carboxyethyl)-8-azabicyclo[3.2.1]octane], the “Score (grading of mortality)” value is reported as “A (A indicates 80-100% mortality)”.
With `N#CC1(c2cncc(Cl)c2)CC2CCC(C1)N2CC(F)F` (stereo not drawn) [Compound 142, exo-3-(5-chloropyrid-3-yl)-endo-3-cyano-8-(2,2-difluoroethyl)-8-azabicyclo[3.2.1]octane] the “Score (grading of mortality)” value was “A (A indicates 80-100% mortality)”.
With `N#CC1(c2cncc(Br)c2)CC2CCC(C1)N2CC(F)(F)F` (centres unmarked) [Compound 143] the “Score (grading of mortality)” value was “A (A indicates 80-100% mortality)”.
`N#CC1(c2cncc(Cl)c2)CC2CCC(C1)N2C(=O)F` (stereo not drawn) [Compound 144, exo-3-(5-chloropyrid-3-yl)-endo-3-cyano-8-(fluorocarbonyl)-8-azabicyclo[3.2.1]octane] was tested, and the “Score (grading of mortality)” value was “A (A indicates 80-100% mortality)”.
`CN(C(=O)N1C2CCC1CC(C#N)(c1cncc(Cl)c1)C2)c1ccccc1` (centres unmarked) [Compound 145] was tested, and the “Score (grading of mortality)” value was “A (A indicates 80-100% mortality)”.
With `CC(C)(C)NC(=O)N1C2CCC1CC(C#N)(c1cncc(Cl)c1)C2` (stereo not drawn) [Compound 146, exo-3-(5-chloropyrid-3-yl)-endo-3-cyano-8-(tert-butylcarbamyl)-8-azabicyclo[3.2.1]octane] the “Score (grading of mortality)” value was “A (A indicates 80-100% mortality)”.
With `CN1C2CCC1CC(C#N)(c1cncc(I)c1)C2` (stereo not drawn) [Compound 147, exo-3-(5-iodopyrid-3-yl)-endo-3-cyano-8-methyl-8-azabicyclo[3.2.1]octane] the “Score (grading of mortality)” value was “A (A indicates 80-100% mortality)”.
`CN1C2CCC1CC(C#N)(c1cncc(O)c1)C2` (stereo not drawn) [Compound 148, exo-3-(5-hydroxypyrid-3-yl)-endo-3-cyano-8-methyl-8-azabicyclo[3.2.1]octane] was tested, and the “Score (grading of mortality)” value was “B (B indicates 40-79% mortality)”.
`N#CC1(c2cncc(Cl)c2)CC2CCC(C1)N2C(=O)N1CCOCC1` (centres unmarked) [Compound 149] was tested, and the “Score (grading of mortality)” value was “A (A indicates 80-100% mortality)”.
In the case of `CC(C)N(C(=O)N1C2CCC1CC(C#N)(c1cncc(Cl)c1)C2)C(C)C` (stereo not drawn) [Compound 150, exo-3-(5-chloropyrid-3-yl)-endo-3-cyano-8-(diisopropylcarbamyl)-8-azabicyclo[3.2.1]octane], the “Score (grading of mortality)” value is reported as “A (A indicates 80-100% mortality)”.
For `N#CC1(c2cncc(Cl)c2)CC2CCC(C1)N2c1c(F)c(F)c(F)c(F)c1F` (stereo not drawn) [Compound 151, exo-3-(5-chloropyrid-3-yl)-endo-3-cyano-8-pentafluorophenyl-8-azabicyclo[3.2.1]octane], the “Score (grading of mortality)” value was “A (A indicates 80-100% mortality)”.
`N#CC1(c2cncc(Cl)c2)CC2CCC(C1)N2c1cc(Cl)ncn1` (centres unmarked) [Compound 152] was tested, and the “Score (grading of mortality)” value was “A (A indicates 80-100% mortality)”.
For `CC(=O)Nc1nc(CN2C3CCC2CC(C#N)(c2cncc(Cl)c2)C3)cs1` (centres unmarked) [Compound 153], the “Score (grading of mortality)” value was “A (A indicates 80-100% mortality)”.
With `N#CC1(c2cncc(Cl)c2)CC2CCC(C1)N2C(=O)Nc1ccc(F)c(Cl)c1` (centres unmarked) [Compound 154] the “Score (grading of mortality)” value was “B (B indicates 40-79% mortality)”.
In the case of `N#CC1(c2cncc(Cl)c2)CC2CCC(C1)N2c1cncc(Cl)c1` (centres unmarked) [Compound 155], the “Score (grading of mortality)” value is reported as “A (A indicates 80-100% mortality)”.
In the case of `N#CC1(c2cncc(Cl)c2)CC2CCC(C1)N2C(=O)c1cnccc1C(F)(F)F` (centres unmarked) [Compound 157], the “Score (grading of mortality)” value is reported as “C (C indicates less than 40% mortality)”.
For `N#CC1(c2cncc(Cl)c2)CC2CCC(C1)N2Cc1nnsc1Cl` (stereo not drawn) [Compound 158, exo-3-(5-chloropyrid-3-yl)-endo-3-cyano-8-((5-chloro-1,2,3-thiadiazol-4-yl)methyl)-8-azabicyclo[3.2.1]octane], the “Score (grading of mortality)” value was “A (A indicates 80-100% mortality)”.
With `CC(C=O)(c1ccccc1)N1C2CCC1CC(C#N)(c1cncc(Cl)c1)C2` (stereo not drawn) [Compound 159, exo-3-(5-chloropyrid-3-yl)-endo-3-cyano-8-(2-phenyl-3-oxo-prop-2-yl)-8-azabicyclo[3.2.1]octane] the “Score (grading of mortality)” value was “A (A indicates 80-100% mortality)”.
With `N#CC1(c2cncc(Cl)c2)CC2CCC(C1)N2CCCC(F)(F)F` (centres unmarked) [Compound 160] the “Score (grading of mortality)” value was “A (A indicates 80-100% mortality)”.
For `COc1cncc(C2(C#N)CC3CCC(C2)N3CC(F)(F)F)c1` (centres unmarked) [Compound 161], the “Score (grading of mortality)” value was “A (A indicates 80-100% mortality)”.
With `CCOC(=O)c1ccc(N2C3CCC2CC(C#N)(c2cncc(Cl)c2)C3)cc1` (centres unmarked) [Compound 162] the “Score (grading of mortality)” value was “C (C indicates less than 40% mortality)”.
`N#CC1(c2cnc(F)c(Cl)c2)CC2CCC(C1)N2CC(F)(F)F` (centres unmarked) [Compound 163] was tested, and the “Score (grading of mortality)” value was “C (C indicates less than 40% mortality)”.
With `CC(=O)Nc1cncc(C2(C#N)CC3CCC(C2)N3C)c1` (stereo not drawn) [Compound 165, exo-3-(5-acetylamidopyrid-3-yl)-endo-3-cyano-8-methyl-8-azabicyclo[3.2.1]octane] the “Score (grading of mortality)” value was “A (A indicates 80-100% mortality)”.
`COc1cncc(C2(C#N)CC3CCC(C2)N3CC#N)c1` (centres unmarked) [Compound 166] was tested, and the “Score (grading of mortality)” value was “A (A indicates 80-100% mortality)”.
With `N#CC1(c2cncc(Cl)c2)CC2CCC(C1)N2c1nc(CCl)ns1` (centres unmarked) [Compound 167] the “Score (grading of mortality)” value was “A (A indicates 80-100% mortality)”.
For `N#CC1(c2cncc(Cl)c2)CC2CCC(C1)N2c1ncc(Cl)s1` (stereo not drawn) [Compound 168, exo-3-(5-chloropyrid-3-yl)-endo-3-cyano-8-(5-chlorothiazol-2-yl)-8-azabicyclo[3.2.1]octane], the “Score (grading of mortality)” value was “A (A indicates 80-100% mortality)”.
For `N#CN1C2CCC1CC(C#N)(c1cncc(Cl)c1)C2` (stereo not drawn) [Compound 169, exo-3-(5-chloropyrid-3-yl)-endo-3-cyano-8-cyano-8-azabicyclo[3.2.1]octane], the “Score (grading of mortality)” value was “A (A indicates 80-100% mortality)”.
For `N#CC1(c2cncc(Cl)c2)CC2CCC(C1)N2c1ccc(C(=O)O)cc1` (centres unmarked) [Compound 170], the “Score (grading of mortality)” value was “B (B indicates 40-79% mortality)”.
With `C=COC(=O)N1C2CCC1CC(C#N)(c1cncc(OC)c1)C2` (centres unmarked) [Compound 171] the “Score (grading of mortality)” value was “A (A indicates 80-100% mortality)”.
For `COc1cncc(C2(C#N)CC3CCC(C2)N3)c1` (centres unmarked) [Compound 172], the “Score (grading of mortality)” value was “A (A indicates 80-100% mortality)”.
For `N#CC1(c2cncc(Cl)c2)CC2CCC(C1)N2c1ccc(Cl)cc1` (centres unmarked) [Compound 173], the “Score (grading of mortality)” value was “A (A indicates 80-100% mortality)”.
For `CN1C2CCC1CC(C#N)(c1cncc(C(F)(F)F)c1)C2` (stereo not drawn) [Compound 174, exo-3-(5-trifluoromethylpyrid-3-yl)-endo-3-cyano-8-methyl-8-azabicyclo[3.2.1]octane], the “Score (grading of mortality)” value was “A (A indicates 80-100% mortality)”.
For `C=CC(C)(c1ccccc1)N1C2CCC1CC(C#N)(c1cncc(Cl)c1)C2` (stereo not drawn) [Compound 175, exo-3-(5-chloropyrid-3-yl)-endo-3-cyano-8-(2-phenylbut-3-en-2-yl)-8-azabicyclo[3.2.1]octane], the “Score (grading of mortality)” value was “A (A indicates 80-100% mortality)”.
With `CC(CO)(c1ccccc1)N1C2CCC1CC(C#N)(c1cncc(Cl)c1)C2` (stereo not drawn) [Compound 176, exo-3-(5-chloropyrid-3-yl)-endo-3-cyano-8-(2-phenyl-3-hydroxyprop-2-yl)-8-azabicyclo[3.2.1]octane] the “Score (grading of mortality)” value was “A (A indicates 80-100% mortality)”.
`N#CC1(c2cncc(C(F)(F)F)c2)CC2CCC(C1)N2C=O` (centres unmarked) [Compound 177] was tested, and the “Score (grading of mortality)” value was “A (A indicates 80-100% mortality)”.
